Measured values as given in patent publication US9611267B2, “Substituted tricyclic compounds as FGFR inhibitors” (Incyte Corporation, priority 2012, dated 2017).

Tests used:
Assay type in all cases: biochemical
FGFR2 = FGFR2 (Homo sapiens (Human), UniProt P21802); test: FGFR enzymatic assay (FRET peptide phosphorylation), FGFR2; details: FGFR2 enzyme 0.01 nM, ATP 100 μM
How it was run: (§1)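 IC50 values were obtained from variable-slope sigmoidal dose-response fitting of a FRET read-out of peptide phosphorylation. The buffer, described for FGFR3, was 50 mM HEPES pH 7.5 with MgCl2, EGTA, Tween-20 and DTT.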

FGFR1 = FGFR1 (Homo sapiens (Human), UniProt P11362); test: FGFR enzymatic assay (FRET peptide phosphorylation), FGFR1; details: FGFR1 enzyme 0.02 nM, ATP 210 μM
How it was run: as §1

FGFR3 = FGFR3 (Homo sapiens (Human), UniProt P22607); test: FGFR enzymatic assay (FRET peptide phosphorylation), FGFR3; details: FGFR3 enzyme (Millipore), ATP 140 μM
How it was run: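 After 5-10 min pre-incubation of FGFR3 with serially diluted compound in pH 7.5 HEPES/MgCl2/EGTA/DTT buffer, the reaction proceeded 1 hr at 25° C. Phosphorylated peptide was detected by FRET, and IC50 was fitted with a variable-slope sigmoid.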

Chain of FGFR1 (P11362 22-822): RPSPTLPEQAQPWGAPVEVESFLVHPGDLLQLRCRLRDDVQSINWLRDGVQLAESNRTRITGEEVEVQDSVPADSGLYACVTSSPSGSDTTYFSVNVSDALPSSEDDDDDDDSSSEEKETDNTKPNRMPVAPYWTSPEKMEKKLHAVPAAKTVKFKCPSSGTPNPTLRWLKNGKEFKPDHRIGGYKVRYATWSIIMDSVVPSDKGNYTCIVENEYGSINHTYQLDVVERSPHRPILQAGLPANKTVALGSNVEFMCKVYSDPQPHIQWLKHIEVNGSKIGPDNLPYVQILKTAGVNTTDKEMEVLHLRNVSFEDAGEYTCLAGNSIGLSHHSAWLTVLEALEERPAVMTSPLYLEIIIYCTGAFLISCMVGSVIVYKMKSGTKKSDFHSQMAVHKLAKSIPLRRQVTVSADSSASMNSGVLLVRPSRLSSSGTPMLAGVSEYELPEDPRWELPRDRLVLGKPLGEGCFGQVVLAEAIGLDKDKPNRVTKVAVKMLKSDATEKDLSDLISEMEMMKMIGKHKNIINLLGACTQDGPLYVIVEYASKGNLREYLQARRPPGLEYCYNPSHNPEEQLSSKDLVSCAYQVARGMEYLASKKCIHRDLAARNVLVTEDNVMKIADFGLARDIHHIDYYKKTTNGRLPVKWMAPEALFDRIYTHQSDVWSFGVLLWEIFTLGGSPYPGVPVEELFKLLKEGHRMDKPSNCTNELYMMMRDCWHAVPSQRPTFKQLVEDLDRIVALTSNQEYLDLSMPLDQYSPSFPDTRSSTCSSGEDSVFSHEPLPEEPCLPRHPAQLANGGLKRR
Chain of FGFR2 (P21802 22-821): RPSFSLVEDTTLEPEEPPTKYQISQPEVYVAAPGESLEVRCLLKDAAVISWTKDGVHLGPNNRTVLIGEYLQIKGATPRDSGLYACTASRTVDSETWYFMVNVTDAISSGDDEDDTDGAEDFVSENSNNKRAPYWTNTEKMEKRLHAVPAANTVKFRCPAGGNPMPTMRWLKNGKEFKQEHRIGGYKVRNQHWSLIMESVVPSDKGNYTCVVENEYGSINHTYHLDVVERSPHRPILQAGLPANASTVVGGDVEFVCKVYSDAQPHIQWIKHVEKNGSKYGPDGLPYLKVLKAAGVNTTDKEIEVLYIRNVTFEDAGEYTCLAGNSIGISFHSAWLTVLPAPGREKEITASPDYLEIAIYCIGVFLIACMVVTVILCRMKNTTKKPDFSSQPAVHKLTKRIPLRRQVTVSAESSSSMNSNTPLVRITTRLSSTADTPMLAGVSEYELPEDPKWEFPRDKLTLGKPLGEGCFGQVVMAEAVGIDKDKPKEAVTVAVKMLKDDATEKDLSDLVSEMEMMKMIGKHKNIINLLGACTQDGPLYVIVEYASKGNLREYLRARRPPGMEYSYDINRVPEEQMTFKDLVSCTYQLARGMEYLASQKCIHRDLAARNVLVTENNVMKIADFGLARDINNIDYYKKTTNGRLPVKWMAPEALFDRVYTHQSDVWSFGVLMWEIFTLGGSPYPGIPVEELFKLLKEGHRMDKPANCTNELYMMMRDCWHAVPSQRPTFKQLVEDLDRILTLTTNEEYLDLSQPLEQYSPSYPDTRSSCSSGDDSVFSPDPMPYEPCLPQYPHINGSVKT
Chain of FGFR3 (P22607 23-806): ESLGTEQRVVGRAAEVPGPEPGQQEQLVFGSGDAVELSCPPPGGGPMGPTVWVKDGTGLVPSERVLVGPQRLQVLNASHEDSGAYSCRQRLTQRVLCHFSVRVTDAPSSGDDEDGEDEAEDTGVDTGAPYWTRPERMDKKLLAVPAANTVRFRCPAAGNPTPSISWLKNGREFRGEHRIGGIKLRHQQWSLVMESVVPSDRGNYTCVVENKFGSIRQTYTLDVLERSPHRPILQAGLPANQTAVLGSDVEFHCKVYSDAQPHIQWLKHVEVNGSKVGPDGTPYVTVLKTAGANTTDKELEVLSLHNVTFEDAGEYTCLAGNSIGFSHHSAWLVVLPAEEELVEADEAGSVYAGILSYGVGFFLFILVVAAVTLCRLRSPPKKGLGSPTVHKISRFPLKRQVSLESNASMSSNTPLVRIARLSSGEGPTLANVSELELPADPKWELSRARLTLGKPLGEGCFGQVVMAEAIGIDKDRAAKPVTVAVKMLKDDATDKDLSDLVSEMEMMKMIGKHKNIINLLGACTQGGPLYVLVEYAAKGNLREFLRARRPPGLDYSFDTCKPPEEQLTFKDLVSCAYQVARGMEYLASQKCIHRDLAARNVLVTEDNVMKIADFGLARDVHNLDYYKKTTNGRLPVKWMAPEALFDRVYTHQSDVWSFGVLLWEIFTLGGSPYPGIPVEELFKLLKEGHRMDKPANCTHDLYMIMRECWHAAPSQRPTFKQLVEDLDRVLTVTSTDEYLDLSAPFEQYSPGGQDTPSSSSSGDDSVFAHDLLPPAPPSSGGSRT

SMILES	IC50 (FGFR2) [nM]	IC50 (FGFR1) [nM]	IC50 (FGFR3) [nM]
COc1cc(OC)c(Cl)c(N2Cc3cnc4c(c3N(C3CCC3)C2=O)CC(=O)N4)c1F [Example 106, 3-(2-chloro-6-fluoro-3,5-dimethoxyphenyl)-1-cyclobutyl-3,4,7,9-tetrahydro-1H-pyrrolo[3′,2′:5,6]pyrido[4,3-d]pyrimidine-2,8-dione]	< 100	< 100	< 100
COc1cc(OC)c(F)c(N2Cc3cnc4[nH]ccc4c3C3(CC3)C2=O)c1F [Example 66, 7′-(2,6-difluoro-3,5-dimethoxyphenyl)-6′,7′-dihydrospiro[cyclopropane-1,9′-pyrrolo[2,3-c][2,7]naphthyridin]-8′(3′H)-one]	< 100	< 100	< 100
CCN1C(=O)N(c2c(F)c(OC)cc(OC)c2F)Cc2cnc3[nH]ccc3c21 [Example 121, 3-(2,6-Difluoro-3,5-dimethoxyphenyl)-1-ethyl-1,3,4,7-tetrahydro-2H-pyrrolo[3′,2′:5,6]pyrido[4,3-d]pyrimidin-2-one]	< 100	< 100	< 100
COc1cc(OC)c(F)c(N2Cc3cnc4[nH]nc(C5CCN(C)CC5)c4c3N(C)C2=O)c1F [Example 55, 3-(2,6-Difluoro-3,5-dimethoxyphenyl)-1-methyl-9-(1-methylpiperidin-4-yl)-1,3,4,7-tetrahydro-2H-pyrazolo[4′,3′:5,6]pyrido[4,3-d]pyrimidin-2-one]	< 100	< 100	< 100
COc1cc(OC)c(Cl)c(N2Cc3cnc4[nH]c(C(=O)N5CCN(C)CC5)cc4c3N(C)C2=O)c1 [Example 26, 3-(2-Chloro-3,5-dimethoxyphenyl)-1-methyl-8-[(4-methylpiperazin-1-yl)carbonyl]-1,3,4,7-tetrahydro-2H-pyrrolo[3′,2′:5,6]pyrido[4,3-d]pyrimidin-2-one]	< 100	< 100	< 100
COc1cc(OC)cc(N2Cc3cnc4[nH]c(-c5ccc(N6CCN(C)CC6)cc5)cc4c3N(C)C2=O)c1 [Example 10, 3-(3,5-Dimethoxyphenyl)-1-methyl-8-[4-(4-methylpiperazin-1-yl)phenyl]-1,3,4,7-tetrahydro-2H-pyrrolo[3′,2′:5,6]pyrido[4,3-d]pyrimidin-2-one]	< 100	< 100	< 100
COc1cc(OC)c(F)c(N2Cc3cnc4[nH]ncc4c3N([C@H]3CCOC3)C2=O)c1F [Example 89, 3-(2,6-difluoro-3,5-dimethoxyphenyl)-1-[(3S)-tetrahydrofuran-3-yl]-1,3,4,7-tetrahydro-2H-pyrazolo[4′,3′:5,6]pyrido[4,3-d]pyrimidin-2-one]	< 100	< 100	< 100
COc1cc(OC)c(F)c(N2Cc3cnc4[nH]ncc4c3N(Cc3cccc(C)n3)C2=O)c1F [Example 217, 3-(2,6-difluoro-3,5-dimethoxyphenyl)-1-[(6-methylpyridin-2-yl)methyl]-1,3,4,7-tetrahydro-2H-pyrazolo[4′,3′:5,6]pyrido[4,3-d]pyrimidin-2-one]	< 100	< 100	< 100
CNC(=O)c1cc2c3c(cnc2[nH]1)CN(c1cc(OC)cc(OC)c1)C(=O)N3C [Example 12, 3-(3,5-Dimethoxyphenyl)-N,1-dimethyl-2-oxo-2,3,4,7-tetrahydro-1H-pyrrolo[3′,2′:5,6]pyrido[4,3-d]pyrimidine-8-carboxamide]	< 100	< 100	< 100
COc1cc(OC)c(F)c(N2Cc3cnc4[nH]ncc4c3N(C[C@H]3CCCO3)C2=O)c1F [Example 166, 3-(2,6-Difluoro-3,5-dimethoxyphenyl)-1-[(2R)-tetrahydrofuran-2-ylmethyl]-1,3,4,7-tetrahydro-2H-pyrazolo[4′,3′:5,6]pyrido[4,3-d]pyrimidin-2-one]	< 100	< 100	< 100
COc1cc(OC)c(F)c(N2Cc3cnc4[nH]ncc4c3N(c3ccccc3OC(F)(F)F)C2=O)c1F [Example 92, 3-(2,6-difluoro-3,5-dimethoxyphenyl)-1-[2-(trifluoromethoxy)phenyl]-1,3,4,7-tetrahydro-2H-pyrazolo[4′,3′:5,6]pyrido[4,3-d]pyrimidin-2-one]	< 100	< 100	< 100

The next lines start with the values.

IC50 (FGFR2) [nM]	IC50 (FGFR1) [nM]	IC50 (FGFR3) [nM]	SMILES
< 100	< 100	< 100	CCN1CCN(Cc2cc3c4c(cnc3[nH]2)CN(c2c(F)c(OC)cc(OC)c2F)C(=O)N4C2CC2)CC1 [Example 188, 1-cyclopropyl-3-(2,6-difluoro-3,5-dimethoxyphenyl)-8-[(4-ethylpiperazin-1-yl)methyl]-1,3,4,7-tetrahydro-2H-pyrrolo[3′,2′:5,6]pyrido[4,3-d]pyrimidin-2-one]
< 100	< 100	< 100	COc1cc(OC)c(F)c(N2Cc3cnc4[nH]c(CN[C@H]5CCOC5)cc4c3N(C)C2=O)c1F [Example 135, 3-(2,6-difluoro-3,5-dimethoxyphenyl)-1-methyl-8-{[(3S)-tetrahydrofuran-3-ylamino]methyl}-1,3,4,7-tetrahydro-2Hpyrrolo[3′,2′:5,6]pyrido[4,3-d]pyrimidin-2-one]
< 100	< 100	< 100	COc1cc(OC)c(F)c(N2Cc3cnc4[nH]c(CN5CCOCC5)cc4c3N(c3cccc(F)c3F)C2=O)c1F [Example 211, 3-(2,6-difluoro-3,5-dimethoxyphenyl)-1-(2,3-difluorophenyl)-8-(morpholin-4-ylmethyl)-1,3,4,7-tetrahydro-2H-pyrrolo[3′,2′:5,6]pyrido[4,3-d]pyrimidin-2-one]
< 100	< 100	< 100	COc1cc(OC)c(F)c(N2Cc3cnc4[nH]c(CN5CCN(C)CC5)cc4c3C(C)(C)C2=O)c1F [Example 153, 7-(2,6-difluoro-3,5-dimethoxyphenyl)-9,9-dimethyl-2-[(4-methylpiperazin-1-yl)methyl]-3,6,7,9-tetrahydro-8H-pyrrolo[2,3-c]-2,7-naphthyridin-8-one]
< 100	< 100	< 100	COc1cc(OC)c(F)c(N2Cc3cnc4[nH]c(CN5CCN(CCO)CC5)cc4c3N(C)C2=O)c1F [Example 130, 3-(2,6-difluoro-3,5-dimethoxyphenyl)-8-{[4-(2-hydroxyethyl)piperazin-1-yl]methyl}-1-methyl-1,3,4,7-tetrahydro-2H-pyrrolo[3′,2′:5,6]pyrido[4,3-d]pyrimidin-2-one]
< 100	< 100	< 100	COc1cc(OC)c(F)c(N2Cc3cnc4[nH]c(CCN5CC(F)C5)cc4c3N(C)C2=O)c1F [Example 143, 3-(2,6-difluoro-3,5-dimethoxyphenyl)-8-[2-(3-fluoroazetidin-1-yl)ethyl]-1-methyl-1,3,4,7-tetrahydro-2Hpyrrolo[3′,2′:5,6]pyrido[4,3-d]pyrimidin-2-one]
< 100	< 100	< 100	COc1cc(OC)c(F)c(N2Cc3cnc4[nH]c(CN5CCOCC5)cc4c3N(c3cnn(C)c3)C2=O)c1F [Example 203, 3-(2,6-difluoro-3,5-dimethoxyphenyl)-1-(1-methyl-1H-pyrazol-4-yl)-8-(morpholin-4-ylmethyl)-1,3,4,7-tetrahydro-2H-pyrrolo[3′,2′:5,6]pyrido[4,3-d]pyrimidin-2-one]
< 100	< 100	< 100	COc1cc(OC)c(F)c(N2Cc3cnc4[nH]c(CN5CC[C@@H](N(C)C)C5)cc4c3C(C)(C)C2=O)c1F [Example 157, 7-(2,6-difluoro-3,5-dimethoxyphenyl)-2-{[(3R)-3-(dimethylamino)pyrrolidin-1-yl]methyl}-9,9-dimethyl-3,6,7,9-tetrahydro-8H-pyrrolo[2,3-c]-2,7-naphthyridin-8-one]
< 100	< 100	< 100	CCN1CCN(Cc2cc3c4c(cnc3[nH]2)CN(c2c(F)c(OC)cc(OC)c2F)C(=O)N4c2ccccc2F)CC1 [Example 181, 3-(2,6-difluoro-3,5-dimethoxyphenyl)-8-[(4-ethylpiperazin-1-yl)methyl]-1-(2-fluorophenyl)-1,3,4,7-tetrahydro-2H-pyrrolo[3′,2′:5,6]pyrido[4,3-d]pyrimidin-2-one]
< 100	< 100	< 100	CCN1CCN(CCCc2cc3c4c(cnc3[nH]2)CN(c2c(F)c(OC)cc(OC)c2F)C(=O)N4C)CC1 [Example 72, 3-(2,6-difluoro-3,5-dimethoxyphenyl)-8-[3-(4-ethylpiperazin-1-yl)propyl]-1-methyl-1,3,4,7-tetrahydro-2H-pyrrolo[3′,2′:5,6]pyrido[4,3-d]pyrimidin-2-one]
< 100	< 100	< 100	CCN1C(=O)N(c2c(F)c(OC)cc(OC)c2F)Cc2cnc3[nH]c(CCN4CC(C#N)C4)cc3c21 [Example 230, 1-{2-[3-(2,6-difluoro-3,5-dimethoxyphenyl)-1-ethyl-2-oxo-2,3,4,7-tetrahydro-1H-pyrrolo[3′,2′:5,6]pyrido[4,3-d]pyrimidin-8-yl]ethyl}azetidine-3-carbonitrile]
< 100	< 100	< 100	COc1cc(OC)c(F)c(N2Cc3cnc4[nH]c(CCN5CCN(C)CC5)cc4c3N(c3ccccc3F)C2=O)c1F [Example 197, 3-(2,6-difluoro-3,5-dimethoxyphenyl)-1-(2-fluorophenyl)-8-[2-(4-methylpiperazin-1-yl)ethyl]-1,3,4,7-tetrahydro-2H-pyrrolo[3′,2′:5,6]pyrido[4,3-d]pyrimidin-2-one]
